Source: patent US20060019971A1, “Treatment of cardiovascular disease with inhibitors of p38 kinase” (priority 2003, published 2006)
pIC50: −log10 of the molar value.

Key:
Assay type in all cases: cell-based, human
IL-6 mRNA in HPBMCs = assay: IL-6 gene expression in HPBMCs, real-time PCR; conditions: 1 μM SD, 6 hours
Protocol: FIG. 2(a) illustrates both the effect of CRP on IL-6 secretion from HPBMCs and its modulation by a p38 inhibitor. 8×10^5 HPBMCs were plated in 96-well. After 1 hour medium was removed and cells were incubated with or without 10 μg/ml of purified human CRP in serum-free RPMI 1640. In parallel experiments cells were treated with 10% FCS together with the CRP treatment. For the p38 antagonism, the p38 inhibitor was added to a final concentration of 1 μM in the parallel treatment. After 6 hours the conditioned medium was collected and IL-6 and IL-8 levels were determined by ELISA. FIG. 2(b) illustrates the effects of p38 inhibitor concentration on CRP induced IL-6 secretion from HPBMCs. 3×10^5 HPBMCs were plated in 96-well. After 1 hour medium was removed and cells were incubated with 10 μg/ml of purified human CRP plus 10% FCS in the presence of varying concentrations of p38 inhibitor. After 4 hours conditioned medium were collected and IL-6 level was determined by ELISA. […] After 6 hours RNA was extracted from the cells and IL-6 expression level was determined by real-time PCR as described in Experimental section. […]
(§1) RNA was extracted from the cells using Qiagen RNA extraction kit according to the manufacturer's instruction. The expression of pro-inflammatory genes IL-1β, IL-6, IL-8, TNFα, COX-2, ET-1, TF were assessed by real-time PCR. […]

[1] = tested on: IL-6 secretion from HPBMCs; assay: IL-6 secretion from HPBMCs, ELISA
Protocol: FIG. 2(a) illustrates both the effect of CRP on IL-6 secretion from HPBMCs and its modulation by a p38 inhibitor. 8×10^5 HPBMCs were plated in 96-well. After 1 hour medium was removed and cells were incubated with or without 10 μg/ml of purified human CRP in serum-free RPMI 1640. In parallel experiments cells were treated with 10% FCS together with the CRP treatment. For the p38 antagonism, the p38 inhibitor was added to a final concentration of 1 μM in the parallel treatment. After 6 hours the conditioned medium was collected and IL-6 and IL-8 levels were determined by ELISA. FIG. 2(b) illustrates the effects of p38 inhibitor concentration on CRP induced IL-6 secretion from HPBMCs. 3×10^5 HPBMCs were plated in 96-well. After 1 hour medium was removed and cells were incubated with 10 μg/ml of purified human CRP plus 10% FCS in the presence of varying concentrations of p38 inhibitor. After 4 hours conditioned medium were collected and IL-6 level was determined by ELISA. FIG. 2(c) illustrates both the effect of CRP on IL-6 gene expressions in HPBMCs and its modulation by p38 inhibitor. 5×10^6 HPBMCs were plated in 6-well. After 1 hour medium was removed and cells were treated with vehicle or 1 μM p38 inhibitor in RPMI 1640 medium. After 1 hour cells were stimulated with 10% FCS only or 10 μg/ml CRP plus 10% FCS. After 6 hours RNA was extracted from the cells and IL-6 expression level was determined by real-time PCR as described in Experimental section.
Cryopreserved human peripheral blood monocytes (HPBMCs, from Biowitker, Walkersvill, Md.) were thawed and washed twice in RPMI 1640. Cells were plated in tissue culture plates and incubated in 5% CO2 at 37 C. After 1 hr media were removed and cells were treated with various treatments. After 2 to 20 hours conditioned media and/or cell lysates were collected for the analyses of secreted cytokines, protein or mRNA expression. 10 μg/ml of purified human CRP (Calbiochem, San Diego, Calif.) was used in most of the treatments. In some experiments fetal calf serum (FCS from ATCC) was added to a final concentration of 10% together with CRP. In the examples provided herein, including those assessing the effects of p38 antagonism, cells were pre-treated with SD, a p38 small molecule inhibitor (Compound 162 in Table A) for 1 hour prior to CRP treatment as described above. In a parallel series of experiments, the effect of vehicle (DMSO) was tested. For TaqMan analyses of various gene expression cells were lysed in ice-cold RLT lysis buffer (Qiagen, Valencia, Calif.) and the lysates were kept in −80° C. until the analyses. For Western analyses cells were lysed in RIPA buffer (50 mM Tris-HCl, pH 7.5, 150 mM NaCl, 1 mM EDTA, 1% NP-40) containing phosphatase inhibitor cocktails and protease inhibitor cocktail (Promega, Madison, Wis.).
Conditioned media from the treated cells were collected (6 to 20 hrs), and the level of secreted interleukin 6 (IL-6), interleukin 1 beta (IL-1 β), tumor necrosis factor alpha (TNFα), and interleukin 8 (IL-8) was determined by ELISA according to the manufacturer's instruction (Biosource International, Camarillo, Calif.). All determinations were performed in duplicates.
As part of the studies described herein, an investigation was done as to whether the CRP invoked IL-6 secretion from HPBMCs is dependent on p38 MAP kinase signaling. […] The effect of addition of 10% fetal calf serum (FCS) during the CRP treatment on IL-6 secretion was also assessed. […]

IL-8 mRNA in HPBMCs = assay: IL-8 gene expression in HPBMCs, real-time PCR; conditions: 1 μM SD
Protocol: 8×10^5 HPBMCs were plated in 96-well. After 1 hour medium was removed and cells were incubated with or without 10 μg/ml of purified human CRP in serum-free RPMI 1640. In parallel experiments cells were treated with 10% FCS together with the CRP treatment. For the p38 antagonism, p38 inhibitor was added to a final concentration of 1 μM in the parallel treatment. After 6 hours conditioned medium were collected and IL-6 and IL-8 levels were determined by ELISA. […] 5×10^6 HPBMCs were plated in 6-well. After 1 hour medium was removed and cells were treated with vehicle or 1 μM p38 inhibitor in RPMI 1640 medium. After 1 hour cells were stimulated with 10% FCS only or 10 μg/ml CRP plus 10% FCS. After 2 hours RNA was extracted from the cells and IL-8 expression level was determined by real-time PCR as described in the Experimental section.
Cryopreserved human peripheral blood monocytes (HPBMCs, from Biowitker, Walkersvill, Md.) were thawed and washed twice in RPMI 1640. Cells were plated in tissue culture plates and incubated in 5% CO2 at 37 C. After 1 hr media were removed and cells were treated with various treatments. […]
as §1

pIC50 ([1]; Homo sapiens, CRP 10 μg/ml in the presence of 10% FCS, 4 hours, read-out: concentration effective to inhibit 50% of IL-6 secretion): > 7.30
Structure (SMILES): C[C@@H]1CN(Cc2ccc(F)cc2)[C@@H](C)CN1C(=O)c1cc2c(C(=O)C(=O)N(C)C)c[nH]c2cc1Cl [Compound 162]
inhibition of FCS invoked IL-6 mRNA expression (IL-6 mRNA in HPBMCs): almost completely blocked
inhibition of CRP invoked IL-6 mRNA expression (IL-6 mRNA in HPBMCs; CRP plus 10% FCS): almost completely blocked
inhibition of CRP-induced IL-6 secretion ([1]; 1 μM SD, 10 μg/ml CRP, no FCS, 6 hours): almost completely attenuated
inhibition of IL-6 secretion induced by CRP plus 10% FCS ([1]; 1 μM SD, 6 hours): dramatically inhibited
inhibition of basal IL-6 secretion ([1]; 1 μM SD, HPBMCs, 6 hours): almost completely attenuated
inhibition of IL-6 secretion invoked by CRP in the presence of FCS ([1]; 3 μM SD, 4 hours): almost completely inhibited
inhibition of FCS invoked IL-8 expression (IL-8 mRNA in HPBMCs): almost completely inhibited
inhibition of CRP increased IL-8 mRNA level (IL-8 mRNA in HPBMCs; at 6 hours): almost completely inhibited
